For data set [1], the target named is EGF receptor tyrosine kinase (Homo sapiens, UniProt P00533). Put plainly: Tyrosine kinase assay, isolated EGF receptor tyrosine kinase. As to conditions: read-out: EGFR Tyrosine Kinase IC50. The class given is biochemical.
For data set [2], the target named is T1, EGF receptor autophosphorylation in A431 cells (Homo sapiens, UniProt P00533).
T1 construct: A431 human epidermoid carcinoma cells were grown in 6-well plates; endogenous in cells; host or cells: A431 human epidermoid carcinoma cells
As to the kind of experiment: Autophosphorylation assay in A431 cells. It counts as cell-based.
Experimental: (§1) Extracts were made by lysing the monolayers in 0.2 mL of boiling Laemlli buffer (2% sodium dodecyl sulfate, 5% beta-mercaptoethanol, 10% glycerol and 50 mM tris[hydroxymethyl]aminomethane (Tris), pH 6.8), and the lysates were heated to 100° C. for 5 minutes. Proteins in the lysate were separated by polyacrylamide gel electrophoresis and electrophoretically transferred to nitrocellulose. The membrane was washed once in 10 mM Tris, pH 7.2, 150 mM NaCl, 0.01% Azide (TNA), and blocked overnight in TNA containing 5% bovine serum albumin and 1% ovalbumin. The membrane was blotted for 2 hours with antiphosphotyrosine antibody (UBI, 1 μg/mL in blocking buffer) and then washed twice in TNA, once in TNA containing 0.05% Tween-20 detergent and 0.05% nonidet P-40 detergent and twice in TNA. […] Band intensities were determined with a Molecular Dynamics laser densitometer.
Duplicate sets of cells were treated with a range of concentrations of the designated compound to be tested as an inhibitor for 15 minutes. The cells were then stimulated with 100 ng/mL of EGF for 5 minutes and extracts made as described under the Western Blotting Procedure.

The target of data set [3] is T1, EGF receptor autophosphorylation in A431 cells. As to the kind of experiment: Irreversibility test: recovery of EGF receptor autophosphorylation after washout. The class given is cell-based. The settings on record: for remaining activity at 2 µM: A-431, A431 cells treated 2 hours with 2 μM, read-out: % of Control Autophosphorylation.
Experimental: as §1
Duplicate sets of cells were treated with 2 μM of designated compound to be tested as an irreversible inhibitor for either 1 or 2 hours. One set of cells was then stimulated with 100 ng/mL of EGF for 5 minutes and extracts made as described under the western blotting procedure. The other set of cells were washed free of the compound with warmed serum-free media, incubated for 2 hours, washed again, incubated another 2 hours, washed again, and then incubated a further 4 hours. This set of cells was then stimulated with EGF and extracts made similar to the first set of cells.
Data set [4] can be described thus: In vivo toxicity on IP dosing bid (no tumor named).
Data set [5] deals with A431 human epidermoid carcinoma. As to the kind of experiment: A431 tumor xenograft. It counts as in vivo, mice.
Experimental: (§2) Female nude mice (NCr nu/nu, Taconic Farms) 18-20 g were implanted SC with tumor fragments (approximately 30 mg) in the region of the right axilla on Day 0. […] The vehicle was 6% dimethyl acetamide in 50 mM lactate buffer, pH 4.0Tumor volumes were recorded three times per week by measuring the length and width of the individual tumors and calculating the mass in milligrams according to the formula (a×b^2)/2, where a and b are the length and width of the tumor. Percent T/C (treated/control) was calculated based on the ratio of the median tumor volume of the treated tumors compared with the median tumor volume of the control tumors on specified measurement days.
For data set [6], the system named is NIH 3T3 fibroblast transfected with the h-EGF receptor. As to the kind of experiment: EGFR tumor xenograft in nude mice. The settings on record: EGFR tumor, IP bid for 14 days.
Experimental: as §2
Data set [7] concerns SK-OV-3 human ovarian carcinoma. Put plainly: SK-OV-3 tumor xenograft. It counts as in vivo, mice. The settings on record: ID dosing bid Days 10-14, 17-21, 24-28, 30 mg/kg.
Experimental: as §2
Data set [8] relates to MCF7 human breast carcinoma. As to the kind of experiment: MCF-7 tumor xenograft. The class given is in vivo, mice.
Experimental: as §2
Data set [9] deals with murine 16/c mammary adenocarcinoma. As to the kind of experiment: Murine 16/c mammary adenocarcinoma model. As to conditions: doses of up to 120 mg/kg bid. The class given is in vivo, mice.
Experimental: as §2
The mark [10] stands for this setting: EGF-stimulated EGFR autophosphorylation in A431 cells.
[11] abbreviates: A431 cells, 2 μM inhibitor, EGFR autophosphorylation.
[12] abbreviates: A431 cells, 2 μM inhibitor, washed, 8 hours drug-free.

Like-named read-outs stand apart in the source and are kept apart here.

Chain of EGF receptor tyrosine kinase (P00533 25-1210): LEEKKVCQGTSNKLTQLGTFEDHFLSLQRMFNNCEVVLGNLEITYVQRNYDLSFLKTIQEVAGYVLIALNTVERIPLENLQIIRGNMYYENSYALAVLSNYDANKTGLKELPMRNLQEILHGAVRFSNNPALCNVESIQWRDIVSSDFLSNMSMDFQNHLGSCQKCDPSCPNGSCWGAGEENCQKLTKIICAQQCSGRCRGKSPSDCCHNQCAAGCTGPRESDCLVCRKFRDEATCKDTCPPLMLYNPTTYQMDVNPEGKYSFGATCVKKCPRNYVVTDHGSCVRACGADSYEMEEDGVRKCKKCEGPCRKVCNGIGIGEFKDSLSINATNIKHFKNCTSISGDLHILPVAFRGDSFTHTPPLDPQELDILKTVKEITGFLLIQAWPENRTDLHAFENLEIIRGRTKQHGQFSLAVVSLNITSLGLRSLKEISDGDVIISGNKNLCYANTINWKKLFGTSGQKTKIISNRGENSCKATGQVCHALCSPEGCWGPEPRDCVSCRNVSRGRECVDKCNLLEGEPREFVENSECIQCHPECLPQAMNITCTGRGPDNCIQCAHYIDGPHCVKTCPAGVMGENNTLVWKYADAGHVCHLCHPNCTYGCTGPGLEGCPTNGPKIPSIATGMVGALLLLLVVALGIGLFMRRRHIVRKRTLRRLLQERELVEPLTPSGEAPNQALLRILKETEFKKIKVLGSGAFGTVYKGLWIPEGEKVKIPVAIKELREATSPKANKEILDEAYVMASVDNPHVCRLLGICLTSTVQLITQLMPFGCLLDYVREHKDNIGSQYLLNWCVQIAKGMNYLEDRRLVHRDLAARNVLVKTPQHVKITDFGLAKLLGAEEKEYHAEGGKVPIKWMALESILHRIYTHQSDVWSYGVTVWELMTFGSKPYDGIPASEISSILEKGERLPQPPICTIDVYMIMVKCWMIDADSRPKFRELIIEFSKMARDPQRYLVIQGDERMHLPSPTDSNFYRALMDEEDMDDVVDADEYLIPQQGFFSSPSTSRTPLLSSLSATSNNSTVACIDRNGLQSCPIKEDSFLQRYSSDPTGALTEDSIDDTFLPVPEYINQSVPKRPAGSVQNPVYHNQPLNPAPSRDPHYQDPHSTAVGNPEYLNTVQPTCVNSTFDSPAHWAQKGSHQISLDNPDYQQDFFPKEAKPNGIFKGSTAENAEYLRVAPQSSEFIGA
T1 sequence (P00533 25-1210): as above

What is called melting point is the temperature, or range, at which the solid turns liquid. Usually IC50 stands for the concentration needed to halve the response being measured. Turning to `C=CC(=O)Nc1ccc2c(Nc3cccc(C)c3)ncnc2c1` [Example 13, N-[4-(3-Methyl-phenylamino)-quinazolin-7-yl]acrylamide], the melting point lay in the range of 269.7 to 270 °C. In data set [1] (isolated EGFR kinase), the IC50 was determined as 1.6 nM. In addition, in [2] (setting [10]), the IC50 stood at 90 nM. Further, the “% Control After 2-Hour Incubation” value in data set [3] (setting [11]) was 1%. Besides, the “% Control After 8 Hours in Drug-Free Media Incubation” value in [3] (setting [12]) was determined as 90%.
In turn, `C=CC(=O)Nc1cc2c(Nc3cccc(Br)c3)ncnc2cc1OCCCN1CCN(C)CC1` [Example 24, N-[4-[(3-Bromophenyl)amino]-7-[3-(4,N-methyl-1,N-piperazino)propoxy]quinazolin-6-yl]acrylamide] showed a melting point of 105 to 107 °C. Moreover, the 50% inhibitory concentration (IC50) in [1] was found to be 4 nM. Besides, in data set [2], the IC50 is 7.9 nM.
As for `C=CS(=O)(=O)Nc1cc2c(Nc3cccc(Br)c3)ncnc2cn1` [Example 40, N-[4-(3-Bromo-phenylamino)-pyrido[3,4-d]pyrimidin-6-yl]-ethenylsulfonamide], the toxicity entry in data set [4] (48 and 20 mg/kg) was “toxic”.
`C=CC(=O)Nc1ccc2c(c1)sc1c(Nc3cccc(Br)c3)ncnc12` [Example 44, N-[4-(3-Bromo-phenylamino)-benzo[b]thieno [3,2-d]pyrimidin-7-yl]acrylamide] had a melting point of 251 to 252.4 °C. Also, the IC50 in data set [1] (isolated EGFR kinase) amounted to 21 nM. In data set [2] (setting [10]), this compound gave an IC50 of 327 nM. Also, the “% Control After 2-Hour Incubation” value in data set [3] (setting [11]) is recorded as 13%. The “% Control After 8 Hours in Drug-Free Media Incubation” value in [3] (setting [12]) amounted to 42%.
Take `C=CC(=O)Nc1ccc2ncnc(Nc3cccc(Br)c3)c2n1` [Example 41, N-[4-(3-Bromo-phenylamino)-pyrido [3,2-d]pyrimidin-6-yl]-acrylamide]: the melting point was 226 to 228 °C. In addition, the IC50 in [1] (isolated EGFR kinase) is 1.1 nM. This compound had an IC50 in [2] (setting [10]) of 5.6 nM. In addition, the “% Control After 2-Hour Incubation” value in [3] (setting [11]) was found to be 0%. For the same compound, the “% Control After 8 Hours in Drug-Free Media Incubation” value in data set [3] (setting [12]) was found to be 0%.
Turning to `CC(=O)N(c1cccc(Br)c1)c1ncnc2ccc(N3C(=O)C=CC3=O)cc12` [Example 58, N-(3-Bromo-phenyl)-N-[6-(2,5-dioxo-2,5-dihydro-pyrrol-1-yl)-quinazolin-4-yl]-acetamide], the melting point was 174 to 175 °C. In addition, the IC50 in data set [1] (isolated EGFR kinase) was 124 nM. Further, the IC50 in data set [2] (setting [10]) was > 500 nM. In addition, the “% Control After 2-Hour Incubation” value in data set [3] (setting [11]) came to 81%. Moreover, in [3] (setting [12]), the “% Control After 8 Hours in Drug-Free Media Incubation” value is given as 95%.
With `CC=CC(=O)Nc1ccc2c(Nc3cccc(Br)c3)ncnc2c1` [Example 9, But-2-enoic acid [4-(3-bromo-phenylamino)-quinazolin-7-yl]-amide], the IC50 was 0.46 nM in data set [1] (isolated EGFR kinase) and 20 nM in [2] (setting [10]). Moreover, the “% Control After 2-Hour Incubation” value in data set [3] (setting [11]) turned out to be 0%. The “% Control After 8 Hours in Drug-Free Media Incubation” value in data set [3] (setting [12]) is given as 99%. The reversibility of inhibition entry in [3] (A431 cells, washout) is reported as “completely reversible”. In addition, the remaining activity at 2 µM in data set [3] (0 hours in drug-free media) worked out at 4%; in [3] (4 hours in drug-free media), 24%; in data set [3] (8 hours in drug-free media), 100%; in data set [3] (23 hours in drug-free media) it was 100%.
In the case of `C=CC(=O)Nc1cccc2c1sc1c(Nc3cccc(Br)c3)ncnc12` [Example 43, N-[4-(3-Bromo-phenylamino)-benzo[b]thieno[3,2-d]-pyrimidin-6-yl]acrylamide], the values for the IC50 in [1] (isolated EGFR kinase) and in data set [2] (setting [10]) were 1.4 nM and 24 nM, respectively. In addition, the “% Control After 2-Hour Incubation” value in [3] (setting [11]) was 0%. Besides, in data set [3] (setting [12]), the “% Control After 8 Hours in Drug-Free Media Incubation” value was 0%.
The compound `C=CC(=O)Nc1cc2c(Nc3cccc(C)c3)ncnc2cc1OCCCN1CCOCC1` [Example 22, N-[4-[(3-Methylphenyl)amino]-7-[3-(4-moroholino)-propoxy]quinazolin-6-yl]acrylamide] returned a melting point of 69 to 72 °C. Also, the IC50 in [1] (isolated EGFR kinase) came to 1.5 nM. The half-inhibitory concentration (IC50) in [2] (setting [10]) was found to be 27 nM. Also, the “% Control After 2-Hour Incubation” value in data set [3] (setting [11]) stood at 0%. In addition, the “% Control After 8 Hours in Drug-Free Media Incubation” value in data set [3] (setting [12]) came to 0%.
In the case of `C=CC(=O)Nc1cc2c(Nc3cccc(Br)c3)ncnc2cc1OCCCN1CCOCC1` [Example 21, N-[4-[(3-Bromophenyl)amino]-7-[3-(4-morpholino)propoxy]quinazolin-6-yl]acrylamide], the toxicity entry in data set [4] (48 mg/kg) was “toxic”.
Turning to `C=CC(=O)Nc1cc2c(Nc3cccc(Br)c3)ncnc2cc1OCCCn1ccnc1` [Example 25, N-[4-[(3-Bromophenyl)amino]-7-[3-(1,N-imidazyl)propoxy]quinazolin-6-yl]acrylamide], the figures for the IC50 in [1] and in [2] were 3 nM and 21 nM, respectively. The “% Control After 2-Hour Incubation” value in data set [3] is reported as 0%. In data set [3], the “% Control After 8 Hours in Drug-Free Media Incubation” value is 0%.
Consider `C=CC(=O)Nc1ccc2ncnc(Nc3cccc(C)c3)c2c1` [Example 19, N-[4-[(3-methylphenyl)amino]quinazolin-6-yl]acrylamide], for which the IC50 stood at 0.42 nM in [1] (isolated EGFR kinase) and 4.7 nM in [2] (setting [10]). The growth delay in data set [5] (SC-Infusion (Alzet) Days 9-23, 12 mg/kg/day) worked out at 15 days; in [5] (SC-Infusion (Alzet) Days 9-23, 24 mg/kg/day), 14 days; in [6] (48 mg/kg), 6.4 days; in [6] (77 mg/kg) it was 7.9 days; in data set [6] (124 mg/kg), 11.8 days; in data set [7], 1.3 days. The toxicity entry in data set [6] (200 mg/kg) is given as “toxic”. Also, the “% Control After 2-Hour Incubation” value in data set [3] (setting [11]) was determined as 0%. In data set [3] (setting [12]), the “% Control After 8 Hours in Drug-Free Media Incubation” value worked out at 0%.
As to `C=CC(=O)Nc1cc2c(Nc3cccc(C)c3)ncnc2cn1` [Example 37, N-[4-(3-Methyl-phenylamino)-pyrido [3,4-d]pyrimidin-6-yl]acryl], the melting point is 221 to 223 °C (dec.). Besides, the IC50 in [1] (isolated EGFR kinase) is 0.48 nM. Besides, the concentration for half-maximal inhibition (IC50) in [2] (setting [10]) came out at 8.3 nM. Besides, in data set [3] (setting [11]), the “% Control After 2-Hour Incubation” value is recorded as 0%. Further, in data set [3] (setting [12]), the “% Control After 8 Hours in Drug-Free Media Incubation” value was found to be 0%.
As for `C=CC(=O)Nc1cc2c(Nc3cccc(Br)c3)ncnc2cc1OCCCCN(C)C` [Example 26, N-[4-[(3-Bromophenyl)amino]-7-[4-(N,N-dimethyl-amino)butoxy]quinazolin-6-yl]acrylamide], the melting point lay in the range of 112 to 115 °C. In addition, the half-inhibitory concentration (IC50) in [1] (isolated EGFR kinase) is 1.7 nM. The same compound displayed an IC50 in data set [2] (setting [10]) of 3 nM. The “% Control After 2-Hour Incubation” value in [3] (setting [11]) worked out at 0%. Further, the “% Control After 8 Hours in Drug-Free Media Incubation” value in data set [3] (setting [12]) was determined as 0%.
Consider `C=CC(=O)Nc1ccc2ncnc(Nc3cccc(Br)c3)c2c1` [Example 11, N-[4-[(3-Bromophenyl)amino]quinazolin-6-yl]acrylamide], for which the growth delay in data set [5] (IP bid Days 7-11, 21-25, 28 mg/kg) is 28.2 days; in data set [5] (PO once daily Days 7-21, 100 mg/kg) it was 2 days; in data set [5] (PO once daily Days 7-21, 200 mg/kg), 3.5 days; in data set [8] (IP bid Days 1-5, 8-12, 15-19, 28 mg/kg), 22.9 days; in data set [8] (IP bid Days 1-5, 8-12, 15-19, 47 mg/kg), 17.4 days; in data set [7] it was 1.2 days. The outcome in data set [9] was Inactive.
Consider `C=CC(=O)N(CCCN1CCOCC1)c1ccc2c(Nc3cccc(Br)c3)ncnc2c1` [Example 4, N-[4-[(3-Bromophenyl)amino]quinazolin-7-yl]-N-[3-morpholinopropyl]acrylamide], for which the melting point is 86 to 88 °C (dec.). Besides, the IC50 in data set [1] (isolated EGFR kinase) was 89 nM. The IC50 in data set [2] (setting [10]) is 2090 nM. In [3] (setting [11]), the “% Control After 2-Hour Incubation” value is on record as 55%. In addition, in data set [3] (setting [12]), the “% Control After 8 Hours in Drug-Free Media Incubation” value amounted to 98%.

The values above are taken from patent US7786131B2, “Pyrimido[5,4-d]pyrimidines derivatives as irreversible inhibitors of tyrosine kinases” (Warner-Lambert Company, priority 1996, dated 2010).
